Assay results taken from PubChem BioAssay (NCI).
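Interpolation was linear, between the two tested concentrations surrounding the appropriate level; five concentrations were tested over 48 hours in 96-well plates. GI50 = concentration required for 50% inhibition of growth. TGI is the concentration that stops growth completely.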

Key:
Assay in all cases: inhibition of tumour cell growth, NCI panel, 48 h
UACC-257 melanoma = test system: UACC-257 melanoma
NCI-H522 lung = test system: NCI-H522 lung
A498 renal = test system: A498 renal
MALME-3M melanoma = test system: MALME-3M melanoma
SN12C renal = test system: SN12C renal
LOX IMVI melanoma = test system: LOX IMVI melanoma
SK-MEL-28 melanoma = test system: SK-MEL-28 melanoma
HS 578T breast = test system: HS 578T breast
SNB-75 CNS = test system: SNB-75 CNS
NCI-H23 lung = test system: NCI-H23 lung
UACC-62 melanoma = test system: UACC-62 melanoma
UO-31 renal = test system: UO-31 renal
SK-MEL-5 melanoma = test system: SK-MEL-5 melanoma
U251 CNS = test system: U251 CNS
MOLT-4 leukemia = test system: MOLT-4 leukemia
OVCAR-5 ovarian = test system: OVCAR-5 ovarian
MCF7 breast = test system: MCF7 breast
COLO 205 colon = test system: COLO 205 colon
IGROV1 ovarian = test system: IGROV1 ovarian
SK-MEL-2 melanoma = test system: SK-MEL-2 melanoma
OVCAR-3 ovarian = test system: OVCAR-3 ovarian
RXF 393 renal = test system: RXF 393 renal
SF-295 CNS = test system: SF-295 CNS
PC-3 prostate = test system: PC-3 prostate
OVCAR-4 ovarian = test system: OVCAR-4 ovarian
TK-10 renal = test system: TK-10 renal
NCI-H226 lung = test system: NCI-H226 lung
HCC-2998 colon = test system: HCC-2998 colon
SR leukemia = test system: SR leukemia
ACHN renal = test system: ACHN renal
HOP-62 NSCLC = test system: HOP-62 NSCLC
HT29 colon = test system: HT29 colon
HCT-15 colon = test system: HCT-15 colon
K-562 leukemia = test system: K-562 leukemia
EKVX NSCLC = test system: EKVX NSCLC
SF-539 CNS = test system: SF-539 CNS
A549 NSCLC = test system: A549 NSCLC
MDA-MB-435 = test system: MDA-MB-435
NCI/ADR-RES ovarian = test system: NCI/ADR-RES ovarian
HCT-116 colon = test system: HCT-116 colon
OVCAR-8 ovarian = test system: OVCAR-8 ovarian
SW-620 colon = test system: SW-620 colon
M14 melanoma = test system: M14 melanoma
CAKI-1 renal = test system: CAKI-1 renal
DU-145 prostate = test system: DU-145 prostate
NCI-H460 lung = test system: NCI-H460 lung
SF-268 CNS = test system: SF-268 CNS
BT-549 breast = test system: BT-549 breast
HL-60(TB) leukemia = test system: HL-60(TB) leukemia
T-47D breast = test system: T-47D breast
SK-OV-3 ovarian = test system: SK-OV-3 ovarian
CCRF-CEM leukemia = test system: CCRF-CEM leukemia
786-0 renal = test system: 786-0 renal
SNB-19 CNS = test system: SNB-19 CNS
MDA-MB-231 breast = test system: MDA-MB-231 breast
KM12 colon = test system: KM12 colon

`ClCCn1cnc2c(SCc3ccccc3Cl)ncnc21` was tested, and the GI50 (UACC-257 melanoma) was 2.64 µM, the GI50 (NCI-H522 lung) was 2.64 µM and the TGI (NCI-H522 lung) was > 71.1 µM. The GI50 (A498 renal) was 24.5 µM, the TGI (A498 renal) was > 93 µM and the GI50 (MALME-3M melanoma) was 14.2 µM. For the same compound, the TGI (MALME-3M melanoma) was 45.4 µM, the GI50 (SN12C renal) was 1.26 µM and the TGI (SN12C renal) was > 100 µM. The GI50 (LOX IMVI melanoma) was 0.0756 µM, the TGI (LOX IMVI melanoma) was 11.9 µM and the GI50 (SK-MEL-28 melanoma) was 5.3 µM. For the same compound, the TGI (SK-MEL-28 melanoma) was > 83.8 µM, the GI50 (HS 578T breast) was 19.4 µM and the TGI (HS 578T breast) was 89 µM. The GI50 (SNB-75 CNS) was 6.69 µM, the TGI (SNB-75 CNS) was > 63.2 µM and the GI50 (NCI-H23 lung) was 9.69 µM. The TGI (NCI-H23 lung) was > 73.7 µM, the GI50 (UACC-62 melanoma) was 0.529 µM and the TGI (UACC-62 melanoma) was > 48.1 µM. It also gave a GI50 (UO-31 renal) of 0.883 µM, a TGI (UO-31 renal) of 41.8 µM and a GI50 (SK-MEL-5 melanoma) of 0.272 µM. The TGI (SK-MEL-5 melanoma) was 43.3 µM, the GI50 (U251 CNS) was 0.0925 µM and the TGI (U251 CNS) was > 89.8 µM. It also gave a GI50 (MOLT-4 leukemia) of 0.176 µM, a TGI (MOLT-4 leukemia) of 9.4 µM and a GI50 (OVCAR-5 ovarian) of 37.8 µM. The TGI (OVCAR-5 ovarian) was > 100 µM, the GI50 (MCF7 breast) was 0.446 µM and the TGI (MCF7 breast) was > 100 µM. For the same compound, the GI50 (COLO 205 colon) was 2.01 µM, the TGI (COLO 205 colon) was > 100 µM and the GI50 (IGROV1 ovarian) was 0.51 µM. For the same compound, the TGI (IGROV1 ovarian) was > 41.6 µM, the GI50 (SK-MEL-2 melanoma) was 12.7 µM and the TGI (SK-MEL-2 melanoma) was 54.4 µM. For the same compound, the GI50 (OVCAR-3 ovarian) was 9.31 µM, the TGI (OVCAR-3 ovarian) was 29.8 µM and the GI50 (RXF 393 renal) was 1.35 µM. The TGI (RXF 393 renal) was 26.4 µM, the GI50 (SF-295 CNS) was 0.184 µM and the TGI (SF-295 CNS) was 20.2 µM. It also gave a GI50 (PC-3 prostate) of 0.717 µM, a TGI (PC-3 prostate) of 46.6 µM and a GI50 (OVCAR-4 ovarian) of 14.4 µM. The TGI (OVCAR-4 ovarian) was > 100 µM, the GI50 (TK-10 renal) was 5.44 µM and the TGI (TK-10 renal) was > 83.1 µM. For the same compound, the GI50 (NCI-H226 lung) was 3.52 µM, the TGI (NCI-H226 lung) was 59.9 µM and the GI50 (HCC-2998 colon) was 1.75 µM. The GI50 (SR leukemia) was 0.0609 µM, the TGI (SR leukemia) was 13.1 µM and the GI50 (ACHN renal) was 0.51 µM. For the same compound, the TGI (ACHN renal) was > 100 µM, the GI50 (HOP-62 NSCLC) was 2.56 µM and the TGI (HOP-62 NSCLC) was > 100 µM. The GI50 (HT29 colon) was 0.191 µM, the TGI (HT29 colon) was > 100 µM and the GI50 (HCT-15 colon) was 0.0383 µM. For the same compound, the TGI (HCT-15 colon) was > 100 µM, the GI50 (K-562 leukemia) was 0.0755 µM and the TGI (K-562 leukemia) was > 59.1 µM. For the same compound, the GI50 (EKVX NSCLC) was 13.8 µM, the TGI (EKVX NSCLC) was > 78 µM and the GI50 (SF-539 CNS) was 0.267 µM. The TGI (SF-539 CNS) was 68.8 µM, the GI50 (A549 NSCLC) was 0.278 µM and the TGI (A549 NSCLC) was > 39.6 µM. For the same compound, the GI50 (MDA-MB-435) was 0.779 µM, the TGI (MDA-MB-435) was 50.7 µM and the GI50 (NCI/ADR-RES ovarian) was 1.2 µM. The TGI (NCI/ADR-RES ovarian) was > 52.5 µM, the GI50 (HCT-116 colon) was 0.0679 µM and the TGI (HCT-116 colon) was 21 µM. For the same compound, the GI50 (OVCAR-8 ovarian) was 0.576 µM, the TGI (OVCAR-8 ovarian) was > 90.5 µM and the GI50 (SW-620 colon) was 0.511 µM. The TGI (SW-620 colon) was > 100 µM, the GI50 (M14 melanoma) was 7.5 µM and the TGI (M14 melanoma) was > 76.6 µM. The GI50 (CAKI-1 renal) was 0.272 µM, the TGI (CAKI-1 renal) was 24.7 µM and the GI50 (DU-145 prostate) was 0.754 µM. The TGI (DU-145 prostate) was 25 µM, the GI50 (NCI-H460 lung) was 0.0533 µM and the TGI (NCI-H460 lung) was 16.4 µM. For the same compound, the GI50 (SF-268 CNS) was 4.87 µM, the TGI (SF-268 CNS) was > 84.7 µM and the GI50 (BT-549 breast) was 8.79 µM. The TGI (BT-549 breast) was 53.6 µM, the GI50 (HL-60(TB) leukemia) was 0.416 µM and the TGI (HL-60(TB) leukemia) was 8.94 µM. The GI50 (T-47D breast) was 13.7 µM, the TGI (T-47D breast) was 79.5 µM and the GI50 (SK-OV-3 ovarian) was 9.72 µM. For the same compound, the TGI (SK-OV-3 ovarian) was > 100 µM, the GI50 (CCRF-CEM leukemia) was 2 µM and the TGI (CCRF-CEM leukemia) was 36.5 µM. It also gave a GI50 (786-0 renal) of 0.671 µM, a TGI (786-0 renal) of 20.4 µM and a GI50 (SNB-19 CNS) of 1.98 µM. For the same compound, the TGI (SNB-19 CNS) was > 100 µM, the GI50 (MDA-MB-231 breast) was 5.77 µM and the TGI (MDA-MB-231 breast) was > 100 µM. The GI50 (KM12 colon) was 0.789 µM and the TGI (KM12 colon) was 46.6 µM.
